Laboratory results from patent US5989846A, “Assays to identify inducers of plant defense resistance” (Rutgers, The State University of New Jersey, priority 1995, dated 1999).

System: salicylic acid binding protein
Test: Competitive [14C] salicylic acid binding assay (spin-column)
Parameters: species or system tobacco
Conditions: [14C] salicylic acid 20 μM
Outline: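 Plant-fractionated binding protein incubated 2 hr at 4 °C with 5 μM-20 μM [14C]salicylic acid, with analogues added to the mixture as competitors. Bound ligand separated from free by spin-column gel exclusion (6 kDa limit) and counted; binding activity compared with analogue-free controls.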

SMILES: O=C(O)c1ccccc1O [salicylic acid, 2-hydroxybenzoic acid]
- Inhibition (%) 2× (40 μM (2×) unlabeled competitor): 50%
- Inhibition (%) 10× (200 μM (10×) unlabeled competitor): 91%
